Entries after “also recorded” stand apart in the source; their conditions may differ. Read-outs that look alike come from different tables or passages of the source.
Columns and labels:
[1] = test system: α2 macroglobulin (α2 M) uptake, Swiss 3T3 cells; experiment: uptake (internalization) of 125I-α2 macroglobulin by Swiss 3T3 cells; type: cell-based, mouse; settings: for IC50: Mus musculus, 0.75 h, Swiss 3T3, 0.5 μg/ml 125I-α2 M, 45 min at 37° C., read-out: half-maximal inhibitory concentration, α2 M uptake; for effect on α2 macroglobulin uptake: in words
Swiss 3T3 cells [2] = experiment: cytotoxicity and cellular RNA synthesis in drug-treated Swiss 3T3 cultures; settings: Swiss 3T3, experimental protocol of FIG. 2
[3] = test system: vesicular stomatitis virus (VSV); type: cell-based, vesicular stomatitis virus; Swiss 3T3 mouse cells; settings: for effect on uptake of VSV and α2 M via coated pits: Swiss 3T3, EM
[4] = test system: vesicular stomatitis virus (VSV); experiment: microbe, parasite or virus in culture; type: cell-based, vesicular stomatitis virus; Swiss 3T3 mouse cells; settings: for VSV-dependent RNA synthesis when VSV neutralizing antibody omitted (reversibility): Swiss 3T3, inhibitor-treated cultures; for IC50: Vesicular stomatitis virus, Swiss-3T3, in Mus musculus, 10 min, read-out: half-maximal inhibitory concentration, VSV dependent RNA synthesis; for effect on VSV entry / VSV dependent RNA synthesis: in words
[5] = target: T1, guinea pig liver transglutaminase (Cavia cutleri, UniProt P08587); experiment: guinea pig liver transglutaminase activity, incorporation of 3H-putrescine into casein; type: biochemical; settings: for IC50: 3H-putrescine into casein, read-out: Half-maximal Inhibitory Concentration, transglutaminase; for potency ranking in the transglutaminase assay: in words
T1 construct: guinea pig liver transglutaminase activity; from tissue; host or cells: guinea pig liver
T1 sequence (P08587 2-690): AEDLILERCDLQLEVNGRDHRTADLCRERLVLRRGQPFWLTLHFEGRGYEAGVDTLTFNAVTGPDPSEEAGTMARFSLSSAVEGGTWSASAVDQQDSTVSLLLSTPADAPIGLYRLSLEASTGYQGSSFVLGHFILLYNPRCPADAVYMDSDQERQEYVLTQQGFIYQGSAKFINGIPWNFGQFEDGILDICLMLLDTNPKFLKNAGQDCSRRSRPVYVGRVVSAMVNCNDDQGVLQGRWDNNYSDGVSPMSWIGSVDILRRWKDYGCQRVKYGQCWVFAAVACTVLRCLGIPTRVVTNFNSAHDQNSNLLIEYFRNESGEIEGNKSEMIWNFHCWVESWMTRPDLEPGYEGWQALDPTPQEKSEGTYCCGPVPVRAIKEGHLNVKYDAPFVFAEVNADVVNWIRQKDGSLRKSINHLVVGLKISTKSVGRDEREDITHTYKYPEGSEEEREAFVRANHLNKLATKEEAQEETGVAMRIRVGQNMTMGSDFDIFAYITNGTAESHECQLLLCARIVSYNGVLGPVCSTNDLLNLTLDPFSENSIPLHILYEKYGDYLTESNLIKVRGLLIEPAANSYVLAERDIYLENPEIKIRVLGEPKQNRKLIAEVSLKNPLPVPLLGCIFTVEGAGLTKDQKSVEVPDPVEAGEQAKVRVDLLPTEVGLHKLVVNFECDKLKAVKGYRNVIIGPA
Procedure: Effect of Dansylcadaverine, Amantadine, and Rimantadine
on the Activity of Guinea Pig Liver Transglutaminase
Enzyme activity was measured by the incorporation of ^3 H-putrescine into casein. All three inhibitors of viral and α2 M internalization were also inhibitory in the transglutaminase assay.

Swiss 3T3 cells [6] = test system: Swiss 3T3 cells
[7] = test system: α2 M in coated pits, Swiss 3T3 cells; experiment: electron microscopy (peroxidase staining) of α2 M appearance in coated pits of Swiss 3T3 cells; type: cell-based, mouse; settings: 250 μg/ml α2 M; for α2 M appearance in coated pits: 45 min at 4° C., varying inhibitor concentrations
Procedure: Swiss 3T3 cells were incubated with 250 μg/ml α2 M at 4° C., with and without inhibitor. Em localization of α2 M was performed using a peroxidase staining technique.
Varying concentrations of amantadine and rimantadine were present during the incubation period. The cells were then washed, fixed for EM and the α2 M located by the peroxidase method. […] In the absence of inhibitors, α2 M was easily detected in coated pits by the peroxidase techniques (FIG. 5B).

[8] = test system: vesicular stomatitis virus (VSV); type: cell-based, vesicular stomatitis virus; Swiss 3T3 mouse cells; settings: 200 μM; 10 min at 37° C.; MOI 500

Row | SMILES | IC50 [1] [µM] | effect on α2 macroglobulin uptake [1] | cytotoxicity (Swiss 3T3 cells [2]) | effect on uptake of VSV and α2 M via coated pits [3] | VSV-dependent RNA synthesis when VSV neutralizing antibody omitted (reversibility) [4] | IC50 [4] [µM] | effect on VSV entry / VSV dependent RNA synthesis [4] | IC50 [5] [µM] | potency ranking in the transglutaminase assay [5] | cellular RNA synthesis, drug-treated versus control cultures (Swiss 3T3 cells [6]) | α2 M appearance in coated pits [7] | α2 M localization by EM ([7]; 5 mM amantadine, 4° C. (FIG. 5C)) | intracellular VSV G protein / VSV uptake by immunofluorescence [8] | coated pit appearance in VSV-infected cells by EM ([3]; 100 μM dansylcadaverine (FIG. 4D)) | coated pit appearance in VSV-infected cells by EM ([3]; 500 μM dansylcadaverine (FIG. 4E)) | potency relative to amantadine, VSV uptake (antiviral) ([4]; dansylcadaverine versus amantadine) [fold] | coated pit appearance in VSV-infected cells by EM ([3]; 1 mM rimantadine (FIG. 4F)) | α2 M localization by EM ([7]; 1 mM rimantadine, 4° C. (FIG. 5D))
1 | NC12CC3CC(CC(C3)C1)C2 [amantadine, 1-adamantanamine] | 2500 | inhibit the uptake of α2 macroglobulin | no evidence of cytotoxicity | drastically perturbed this uptake mechanism | control levels of VSV-dependent RNA synthesis | 1000 | reduction of VSV-dependent RNA synthesis; also recorded: inhibit VSV entry; also recorded: reduced VSV dependent RNA synthesis | 20000 | third | equivalent in control and drug-treated cultures | inhibition of α2 M appearance in coated pits | α2 M bound diffusely to the plasma membrane | – | – | – | – | – | –
2 | CN(C)c1cccc2c(S(=O)(=O)NCCCCCN)cccc12 [dansylcadaverine] | 150 | inhibit the uptake of α2 macroglobulin | no evidence of cytotoxicity | drastically perturbed this uptake mechanism | control levels of VSV-dependent RNA synthesis | 50 | blocking virus (such as vesicular stomatitis virus, VSV), and α2 macroglobulin uptake; also recorded: reduction of VSV-dependent RNA synthesis; also recorded: inhibit VSV entry; also recorded: reduced VSV dependent RNA synthesis | 200 | most potent | equivalent in control and drug-treated cultures | – | – | little or no G protein | vacant coated pit | vacant coated pit | 20 | – | –
3 | CC(N)C12CC3CC(CC(C3)C1)C2 (stereo not drawn) [rimantadine] | 500 | – | – | drastically perturbed this uptake mechanism | – | – | – | 5000 | second most potent | – | inhibition of α2 M appearance in coated pits | – | – | – | – | – | vacant coated pit | α2 M bound to plasma membrane

Source: US4396628A (priority 1982, dated 1983)
